# In patent US11491132B2, “Methods for treating thrombocytopenia” (Enzychem Lifesciences Corporation, priority 2014, dated 2022):
# What was measured:
# C3 = C3 expression in IL-4/TNF-α treated HMC-1 cells, RT-PCR; format: cell-based, human; settings: HMC-1 cells treated with IL-4 and TNF-α; PLAG 0.1 and 1 μg/mL pre-treatment, or S6I
# Protocol: A blood cell line, HMC-1 (human mast cell, American Type Culture Collection, ATCC, Rockville, Md.) is incubated and maintained at 37° C. under 5% CO2 humid conditions. The medium is IMDM (Life Technologies, Karlsruhe, Germany) containing 10% Fetal Calf Serum (FCS, HyClone, Logan, Utah), 2 mM […], 100 μg/ml penicillin, 100 μg/ml streptomycin (Life Technologies). The cultured HMC-1 cells (1×10^6 cell/ml) are pre-treated with 0.1 and 1 μg/mL concentration of PLAG, followed by treating with IL-4 (5 ng) and/or TNF-α (10 ng) to induce cellular activities.
# The expressed C3 and its mRNA level change are observed by using RT-PCR (Reverse Transcriptase Polymerase Chain Reaction). The RT-PCR is carried out as follows: the total RNA is separated by the standard protocol and cDNA is synthesized using AccuScript High Fidelity 1st Strand cDNA Synthesis Kit (Stratagene) by the manufacturer's instructions. Two-step RT-PCR reaction is conducted using Oligo-dT primer and reverse transcriptase, pair of primer and Taq polymerase (Takara, Shiga, Japan). […] The product of PCR is separated using 1.5% agarose gel, dyed with ethidium bromide (EtBr), and visualized with Gel Doc 2000 UV trans-illuminator (Bio-Rad Laboratories, Hercules, Calif., USA), and the experimental data is analyzed using Quantity One software (Bio-Rad Laboratories).
# Complement 3 = assay: Clinical study: activity of PLAG on Complement 3 in healthy subjects; format: in vivo, human
# Protocol: A clinical study is conducted in Gwandong University MyungJi Hospital Clinical Study Center in Republic of Korea with 27 healthy patients to study immune-modulating effect of PLAG. Volunteers are tested for 30 days in vivo as oral administer (500 mg of PLAG per day) under a legitimate clinical approval. Complement 3 is counted using C3 assay kit. The analysis result is shown in FIG. 7, and change of immunoactivity by the administration of PLAG in healthy subjects is shown in Table 8 (effect of PLAG supplementation on immune function of peripheral blood after 4-wk intervention). As shown in FIG. 7 and Table 8, the majority of those who consume PLAG for a month (twenty-six (26) subjects out of 27 patients) show decreased complement 3 (C3), while the control group, who are treated with soybean oil, show both increase and decrease of C3.
# STAT1 = target: T1, STAT1 (Homo sapiens, UniProt P42224); assay: Dephosphorylation of STAT1 in U937 cell lysate, western blot; format: cell-based; design: endogenous in cells; host or cells: U937; settings: U937 cells; PLAG 0.01 to 10 μg/ml; 15 min after 10 ng IFN-γ
# T1 sequence (P42224 1-750): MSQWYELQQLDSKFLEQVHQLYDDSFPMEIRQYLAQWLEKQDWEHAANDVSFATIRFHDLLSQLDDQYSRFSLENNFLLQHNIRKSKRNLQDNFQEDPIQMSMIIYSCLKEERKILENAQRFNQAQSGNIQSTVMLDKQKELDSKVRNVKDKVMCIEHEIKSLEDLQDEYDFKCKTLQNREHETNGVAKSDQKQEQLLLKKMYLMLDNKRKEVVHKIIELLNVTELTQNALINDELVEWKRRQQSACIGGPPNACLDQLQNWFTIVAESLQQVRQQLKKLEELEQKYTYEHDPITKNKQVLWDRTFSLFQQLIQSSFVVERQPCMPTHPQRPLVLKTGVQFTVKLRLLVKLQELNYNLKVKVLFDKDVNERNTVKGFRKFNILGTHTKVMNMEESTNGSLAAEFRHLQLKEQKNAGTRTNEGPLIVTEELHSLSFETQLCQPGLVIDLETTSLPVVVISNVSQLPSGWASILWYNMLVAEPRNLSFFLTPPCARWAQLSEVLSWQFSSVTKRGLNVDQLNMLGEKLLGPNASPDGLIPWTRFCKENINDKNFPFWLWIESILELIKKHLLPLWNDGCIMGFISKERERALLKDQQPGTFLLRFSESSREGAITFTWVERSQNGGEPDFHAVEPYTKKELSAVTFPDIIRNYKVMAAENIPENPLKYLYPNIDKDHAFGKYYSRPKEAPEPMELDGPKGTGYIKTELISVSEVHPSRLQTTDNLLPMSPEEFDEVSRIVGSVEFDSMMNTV
# Protocol: Dephosphorylation of STAT6 is examined using anti-phosphorylated STAT6 in U937, A549, and Jurkat cell lysates treated with PLAG concentration from 0.01 to 10 μg/ml. Phosphorylation of STAT6 is induced by treatment with 10 ng/ml of IL-4. Dephosphorylation of STAT1 is examined in the U937 cell lysate treated with PLAG (0.01 to 10 μg/ml). Phosphorylation of STAT1 is induced by 10 ng of IFN-γ treatment. Dephosphorylation of STAT1 and STAT6 is examined at 15 min after stimulation with IFN-γ and IL-4 respectively, in the PLAG pretreated cells. […] The transcriptional activity of STAT6 is decreased by the dephosphorylation of STAT6. […] No effect of PLAG on STAT1 phosphorylation is observed.
smiles,measurement,setting,value
"CCCCC/C=C\C/C=C\CCCCCCCC(=O)OC(COC(C)=O)COC(=O)CCCCCCCCCCCCCCC (racemic) [PLAG, 1-palmitoyl-2-linoleoyl-3-acetylglycerol]",expression of C3,C3,suppressed by PLAG on a concentration dependent basis
same,decrease of average concentration of C3 in blood,"Complement 3; after administration of PLAG, p value <0.001",about 10 mg/dL
same,subjects showing decreased complement 3 (C3),"Complement 3; out of 27 patients, PLAG for a month",26 subjects
same,STAT1 phosphorylation,STAT1,No effect
